In patent US20180369111A1, “COMPOSITION COMPRISING BAICALIN AT A HIGH CONCENTRATION” (L'OREAL, priority 2015, published 2018):

Test: Solubility and chemical stability of baicalin in aqueous medium as a function of pH
Type: physicochemical
Excerpt: Baicalin is a polyphenol displaying an antioxidant activity. There is thus a need, for consumers, to provide cosmetic compositions comprising baicalin, or an extract containing same, at a high concentration and having a greater antioxidant efficacy than the cosmetic compositions known in the prior art comprising baicalin. However, the solubility of baicalin is very low in aqueous medium. It is therefore very difficult to incorporate in a composition, in particular a cosmetic composition, at a high mass concentration, in particular at a mass concentration greater than 0.2%. At a mass concentration greater than 0.2%, the appearance of the presence of crystallized baicalin is observed. The present inventors have identified that the solubility of baicalin was increased with the pH.
In particular, the method implemented to incorporate baicalin, or an extract containing same, at a high mass concentration, i.e. for example greater than 0.5% in the aqueous phase of a composition consists, in a first transitory step, of completely dissolving the baicalin in aqueous phase in a basic medium using a base to raise the pH to a value greater than 6. Under these conditions, it is possible to prepare aqueous solutions comprising up to 10% baicalin as a mass concentration, without using hydrotropic agents.
Baicalin is presented in the form of a yellow powder, having a purity optionally greater than 90 or 95%. Baicalin crystals may be presented in the form of needles.

In the case of `O=C(O)[C@H]1O[C@@H](Oc2cc3oc(-c4ccccc4)cc(=O)c3c(O)c2O)[C@H](O)[C@@H](O)[C@@H]1O` [Baicalin], the “baicalin mass concentration attainable in aqueous solution” value is reported as “up to 10%”, the “chemical stability of baicalin” value (at a pH greater than 6) is reported as “chemically unstable and is degraded” and the “mass concentration above which crystallized baicalin appears” value (in a composition, mass concentration) is reported as “greater than 0.2%”.
